Measurements as given in ChEMBL document CHEMBL3526058, “Investigating the enteroenteric recirculation of apixaban, a factor Xa inhibitor: administration of activated charcoal to bile duct-cannulated rats and dogs receiving an intravenous dose and use of drug transporter knockout rats” (Drug Metab Dispos, 2013).

Tests used:
[1] = Cmax in P-gp-knockout Sprague-Dawley rat at 2 mg/kg, iv; assay type: ADME, organism-based; set-up: dose 2 mg/kg, route intravenous; details: in vivo
[2] = Half life in P-gp-knockout Sprague-Dawley rat at 2 mg/kg, iv; assay type: ADME, organism-based; set-up: dose 2 mg/kg, route intravenous; details: in vivo
[3] = Clearance in P-gp-knockout Sprague-Dawley rat at 2 mg/kg, iv; assay type: ADME, organism-based; set-up: dose 2 mg/kg, route intravenous; details: in vivo
Rattus norvegicus [4] = experiment: Intestinal clearance in wild-type bile duct-cannulated Sprague-Dawley rat at 2 mg/kg, iv relative to total clearance; assay type: ADME, organism-based; set-up: dose 2 mg/kg, route intravenous; details: in vivo
[5] = Half life in wild-type bile duct-cannulated Sprague-Dawley rat at 2 mg/kg, iv administered 0.125 hr post GF-120918 treatment; assay type: ADME, organism-based; set-up: dose 2 mg/kg, route intravenous; details: in vivo, with GF-120918
[6] = Mean residence time in wild-type bile duct-cannulated Sprague-Dawley rat at 2 mg/kg, iv administered 0.125 hr post GF-120918 treatment; assay type: ADME, organism-based; set-up: dose 2 mg/kg, route intravenous; details: in vivo, with GF-120918
[7] = Renal clearance in wild-type bile duct-cannulated Sprague-Dawley rat at 2 mg/kg, iv administered 0.125 hr post GF-120918 treatment; assay type: ADME, organism-based, Kidney; set-up: dose 2 mg/kg, route intravenous; details: in vivo, with GF-120918
Rattus norvegicus [8] = experiment: Metabolism and biliary clearance in P-gp-knockout Sprague-Dawley rat at 2 mg/kg, iv; assay type: ADME, organism-based, Bile; set-up: dose 2 mg/kg, route intravenous; details: in vivo
Rattus norvegicus [9] = experiment: Renal clearance in P-gp-knockout Sprague-Dawley rat at 2 mg/kg, iv relative to total clearance; assay type: ADME, organism-based, Kidney; set-up: dose 2 mg/kg, route intravenous; details: in vivo
Rattus norvegicus [10] = experiment: Intestinal clearance in wild-type bile duct-cannulated Sprague-Dawley rat at 2 mg/kg, iv administered 0.125 hr post GF-120918 treatment relative to total clearance; assay type: ADME, organism-based; set-up: dose 2 mg/kg, route intravenous; details: in vivo
Rattus norvegicus [11] = experiment: Metabolism and biliary clearance at 8 hrs in wild-type bile duct-cannulated Sprague-Dawley rat at 2 mg/kg, iv administered 0.125 hr post GF-120918 treatment relative to total clearance; assay type: ADME, organism-based; set-up: dose 2 mg/kg, route intravenous; details: in vivo
Rattus norvegicus [12] = experiment: Intestinal clearance in wild-type 30 mins activated charcoal pre-treated bile duct-cannulated Sprague-Dawley rat at 2 mg/kg, iv followed by activated charcoal administration 5 to 180 mins post compound dosing relative to total clearance; assay type: ADME, organism-based; set-up: dose 2 mg/kg, route intravenous; details: in vivo
Canis familiaris [13] = experiment: AUC (0 to infinity) in bile duct-cannulated beagle dog at 1 mg/kg, iv administered as 5 mins infusion; assay type: ADME, organism-based, Canis lupus familiaris; set-up: time infinity, dose 1 mg/kg, route intravenous; details: in vivo
[14] = Cmax in bile duct-cannulated beagle dog at 1 mg/kg, iv administered as 5 mins infusion; assay type: ADME, organism-based, Canis lupus familiaris; set-up: dose 1 mg/kg, route intravenous; details: in vivo
[15] = Half life in bile duct-cannulated beagle dog at 1 mg/kg, iv administered as 5 mins infusion; assay type: ADME, organism-based, Canis lupus familiaris; set-up: dose 1 mg/kg, route intravenous; details: in vivo
[16] = Mean residence time in bile duct-cannulated beagle dog at 1 mg/kg, iv administered as 5 mins infusion; assay type: ADME, organism-based, Canis lupus familiaris; set-up: dose 1 mg/kg, route intravenous; details: in vivo
[17] = Volume of distribution at steady state in bile duct-cannulated beagle dog at 1 mg/kg, iv administered as 5 mins infusion followed by activated charcoal administration 10 to 420 mins post compound dosing; assay type: ADME, organism-based, Canis lupus familiaris; set-up: dose 1 mg/kg, route intravenous; details: in vivo, read-out: Vdss
[18] = Mean residence time in bile duct-cannulated beagle dog at 1 mg/kg, iv administered as 5 mins infusion followed by activated charcoal administration 10 to 420 mins post compound dosing; assay type: ADME, organism-based, Canis lupus familiaris; set-up: dose 1 mg/kg, route intravenous; details: in vivo
Canis familiaris [19] = experiment: Intestinal clearance in bile duct-cannulated beagle dog at 1 mg/kg, iv administered as 5 mins infusion followed by activated charcoal administration 10 to 420 mins post compound dosing; assay type: ADME, organism-based, Canis lupus familiaris; set-up: dose 1 mg/kg, route intravenous; details: in vivo
Canis familiaris [20] = experiment: Metabolism and biliary clearance in bile duct-cannulated beagle dog at 1 mg/kg, iv administered as 5 mins infusion followed by activated charcoal administration 10 to 420 mins post compound dosing; assay type: ADME, organism-based, Canis lupus familiaris; set-up: dose 1 mg/kg, route intravenous; details: in vivo
Canis familiaris [21] = experiment: Intestinal clearance in bile duct-cannulated beagle dog at 1 mg/kg, iv administered as 5 mins infusion relative to total clearance; assay type: ADME, organism-based, Canis lupus familiaris; set-up: dose 1 mg/kg, route intravenous; details: in vivo
Canis familiaris [22] = experiment: Intestinal clearance in bile duct-cannulated beagle dog at 1 mg/kg, iv administered as 5 mins infusion followed by activated charcoal administration 10 to 420 mins post compound dosing relative to total clearance; assay type: ADME, organism-based, Canis lupus familiaris; set-up: dose 1 mg/kg, route intravenous; details: in vivo
[23] = Drug recovery in urine of beagle dog at 1 mg/kg, iv administered as 5 mins infusion measured up to 72 hrs; assay type: ADME, organism-based, Canis lupus familiaris; set-up: dose 1 mg/kg, route intravenous; details: read-out: Drug recovery
[24] = Drug recovery in urine of beagle dog at 5 mg/kg, po measured up to 72 hrs; assay type: ADME, organism-based, Canis lupus familiaris; set-up: dose 5 mg/kg, route oral; details: read-out: Drug recovery
[25] = Drug recovery in feces of bile duct-cannulated beagle dog at 1 mg/kg, iv administered as 5 mins infusion followed by activated charcoal administration 10 to 420 mins post compound measured up to 72 hrs; assay type: ADME, organism-based, Canis lupus familiaris; set-up: dose 1 mg/kg, route intravenous; details: in vivo
[26] = Drug recovery in feces of beagle dog at 1 mg/kg, iv administered as 5 mins infusion measured up to 72 hrs; assay type: ADME, organism-based, Canis lupus familiaris; set-up: dose 1 mg/kg, route intravenous; details: read-out: Drug recovery
[27] = Drug recovery in feces of beagle dog at 5 mg/kg, po measured up to 72 hrs; assay type: ADME, organism-based, Canis lupus familiaris; set-up: dose 5 mg/kg, route oral; details: read-out: Drug recovery
[28] = Drug recovery in urine of bile duct-cannulated Sprague-Dawley rat at 2 mg/kg, iv administered 1 hr post GF-120918 treatment measured up to 48 hrs; assay type: ADME, organism-based; set-up: dose 2 mg/kg, route intravenous; details: with GF-120918, given 1 hr before the compound, read-out: Drug recovery
[29] = Drug recovery in urine of bile duct-cannulated P-gp-knockout Sprague-Dawley rat at 2 mg/kg, iv measured up to 24 hrs; assay type: ADME, organism-based; set-up: dose 2 mg/kg, route intravenous; details: read-out: Drug recovery
[30] = Drug recovery in urine of Sprague-Dawley rat at 2 mg/kg, iv measured up to 168 hrs; assay type: ADME, organism-based; set-up: dose 2 mg/kg, route intravenous; details: read-out: Drug recovery
[31] = AUC (0 to infinity) in BCRP-knockout Sprague-Dawley rat at 2 mg/kg, iv; assay type: ADME, organism-based; set-up: time infinity, dose 2 mg/kg, route intravenous; details: plasma
[32] = Half life in BCRP-knockout Sprague-Dawley rat at 2 mg/kg, iv; assay type: ADME, organism-based; set-up: dose 2 mg/kg, route intravenous; details: in vivo
[33] = Clearance in BCRP-knockout Sprague-Dawley rat at 2 mg/kg, iv; assay type: ADME, organism-based; set-up: dose 2 mg/kg, route intravenous; details: in vivo
[34] = Renal clearance in BCRP-knockout Sprague-Dawley rat at 2 mg/kg, iv; assay type: ADME, organism-based, Kidney; set-up: dose 2 mg/kg, route intravenous; details: in vivo
Rattus norvegicus [35] = experiment: Metabolism and biliary clearance in BCRP-knockout Sprague-Dawley rat at 2 mg/kg, iv; assay type: ADME, organism-based, Bile; set-up: dose 2 mg/kg, route intravenous; details: in vivo
Rattus norvegicus [36] = experiment: Renal clearance in BCRP-knockout Sprague-Dawley rat at 2 mg/kg, iv relative to total clearance; assay type: ADME, organism-based, Kidney; set-up: dose 2 mg/kg, route intravenous; details: in vivo
[37] = Plasma protein binding in beagle dog; assay type: ADME, cell-free, Canis lupus familiaris; details: read-out: PPB (converted)
[38] = Plasma protein binding in Sprague-Dawley rat; assay type: ADME, cell-free; details: read-out: PPB (converted)
[39] = Drug recovery in bile of 30 mins activated charcoal pre-treated bile duct-cannulated Sprague-Dawley rat at 2 mg/kg, iv followed by activated charcoal administration 5 to 180 mins post compound dosing measured up to 48 hrs; assay type: ADME, organism-based; set-up: dose 2 mg/kg, route intravenous; details: read-out: Drug recovery
[40] = Drug recovery in bile of bile duct-cannulated P-gp-knockout Sprague-Dawley rat at 2 mg/kg, iv measured up to 24 hrs; assay type: ADME, organism-based; set-up: dose 2 mg/kg, route intravenous; details: read-out: Drug recovery
[41] = Drug recovery in bile of bile duct-cannulated BCRP-knockout Sprague-Dawley rat at 2 mg/kg, iv measured up to 24 hrs; assay type: ADME, organism-based; set-up: dose 2 mg/kg, route intravenous; details: read-out: Drug recovery
[42] = Drug recovery in feces of bile duct-cannulated P-gp-knockout Sprague-Dawley rat at 2 mg/kg, iv measured up to 24 hrs; assay type: ADME, organism-based; set-up: dose 2 mg/kg, route intravenous; details: read-out: Drug recovery
[43] = Drug recovery in feces of bile duct-cannulated BCRP-knockout Sprague-Dawley rat at 2 mg/kg, iv measured up to 24 hrs; assay type: ADME, organism-based; set-up: dose 2 mg/kg, route intravenous; details: read-out: Drug recovery
[44] = Drug recovery in feces of Sprague-Dawley rat at 30 mg/kg, po measured up to 168 hrs; assay type: ADME, organism-based; set-up: dose 30 mg/kg, route oral; details: read-out: Drug recovery
[45] = Volume of distribution at steady state in wild-type bile duct-cannulated Sprague-Dawley rat at 2 mg/kg, iv; assay type: ADME, organism-based; set-up: dose 2 mg/kg, route intravenous; details: in vivo, read-out: Vdss
[46] = Mean residence time in wild-type bile duct-cannulated Sprague-Dawley rat at 2 mg/kg, iv; assay type: ADME, organism-based; set-up: dose 2 mg/kg, route intravenous; details: in vivo

## COc1ccc(-n2nc(C(N)=O)c3c2[14C](=O)N(c2ccc(N4CCCCC4=O)cc2)CC3)cc1
[1]
  Cmax: 2160 ng/mL
[2]
  half-life: 1.1 h
[3]
  clearance: 13.3 mL/min/kg
Rattus norvegicus [4]
  CL: 21%
[5]
  half-life: 2.8 h
[6]
  MRT: 1.7 h
[7]
  CL renal at 0.125 h: 5.83 mL/min/kg
Rattus norvegicus [8]
  CL: 4.83 mL/min/kg
Rattus norvegicus [9]
  CL: 43%
Rattus norvegicus [10]
  CL: 14%
Rattus norvegicus [11]
  CL: 36%
Rattus norvegicus [12]
  CL: 28%
Canis familiaris [13]
  AUC: 9300 ng·h/mL
[14]
  Cmax: 4430 ng/mL
[15]
  half-life: 2.9 h
[16]
  MRT: 2.6 h
[17]
  Vd: 0.2 L/kg
[18]
  MRT: 1.9 h
Canis familiaris [19]
  CL: 0.52 mL/min/kg
Canis familiaris [20]
  CL: 0.192 mL/min/kg
Canis familiaris [21]
  CL: 43%
Canis familiaris [22]
  CL: 62%
[23]
  dose excreted: 9.9%
[24]
  dose excreted at 72 h: 8.8%
[25]
  Drug recovery: 62.7%
[26]
  dose excreted: 50.8%
[27]
  dose excreted at 72 h: 73.7%
[28]
  dose excreted: 50.6%
[29]
  dose excreted at 24 h: 44.3%
[30]
  dose excreted at 168 h: 51.3%
[31]
  AUC(0-inf): 2340 ng·h/mL
[32]
  half-life: 2.1 h
[33]
  clearance: 15 mL/min/kg
[34]
  CL renal: 5 mL/min/kg
Rattus norvegicus [35]
  CL: 4.33 mL/min/kg
Rattus norvegicus [36]
  CL: 33%
[37]
  fraction unbound: 0.08
[38]
  fraction unbound: 0.04
[39]
  dose excreted: 15.7%
[40]
  dose excreted at 24 h: 14.1%
[41]
  dose excreted at 24 h: 12.7%
[42]
  dose excreted at 24 h: 24.9%
[43]
  dose excreted at 24 h: 34.1%
[44]
  dose excreted at 168 h: 74%
[45]
  Vd: 0.9 L/kg
[46]
  MRT: 0.6 h
